Laboratory results as given in US20250093270A1, “Method for Detecting Enzyme Activity and Fluorescent Probe Used in Said Method” (priority 2022, published 2025).

Assays:
[1] = Microdevice compatibility: fluorescence image of a microdevice loaded with probe and reacted with a thiol (leakage to oil, adsorption to well); conditions: for adsorption to the microdevice (inner wall of the reaction vessel / well): reaction vessel formed of CYTOP; for leakage of the probe enclosed in the well of the microdevice to the oil: sealing oil
Procedure: (§1) An enzyme stock solution was diluted with an assay buffer containing a fluorescent probe. Next, 40 μL of a reaction mixture was added to the microdevice (Simoa disk; Quanterx Corporation). Next, 80 μL of FC-70 (Sigma-Aldrich) was introduced into the microdevice to wash off the excess reaction mixture and form W/O droplets. A fluorescence signal of the catalytically produced fluorescent dye was measured under a fluorescence microscope, and the enzyme activity in the chamber was measured.
(§2) Fluorescence images were acquired using a 20× dry objective (Plan Apo 20x), an sCMOS camera (ORCA-FusionC14440, Hamamatsu Photonics K.K.), a white LED lighting unit (X-Cite Xylis, Opto Science, Inc.), and a fluorescence microscope (Ti2, Nikon Corporation) equipped with a motorized stage. In the analysis, measurement was performed using a solution containing sSiR (10 μM) as an internal standard and the focus was adjusted using fluorescence. Images were acquired in tile scan mode at full focus.
FIG. 5(a) illustrates a photograph of a state in which each of three kinds of probes containing 2- and 6-position unsubstituted BODIPY and GSH are supplemented with octanol and water. FIG. 5(b) illustrates a fluorescence image of a microdevice equipped with a probe and reacted with a thiol.
FIG. 5(d) illustrates fluorescence images of a microdevice containing human plasma that was loaded with a fluorescent probe (30 μM) in HEPES-buffer (10 mM, pH 7.4, containing 0.1% CHAPS) and incubated at 37° C. for 1.5 hours.
FIG. 7(a) illustrates a photograph (water-octanol distribution experiment) of a state in which each probe and GSH are supplemented with octanol and water. FIG. 7(b) illustrates a fluorescence image of a microdevice equipped with a probe and reacted with a thiol.
(§3) The image was acquired after incubation at 25° C. for 30 minutes.

[2] = Water-octanol distribution experiment (probe and GSH supplemented with octanol and water); assay type: physicochemical; conditions: for distribution to octanol (lipid-soluble solvent) side: water-octanol, with GSH
[3] = Comparison of water solubility by difference in elution time of LC-MS (C18); assay type: physicochemical; conditions: C18, ammonium formate/acetonitrile gradient
Procedure: FIG. 10 illustrates the analysis of a mixture of five compounds by LC-MS and the extracted ion chromatogram of each compound shown with the display color. The results of the diphosphonic acid form, the dicarboxylic acid form, the disulfonic acid form, the monosulfonic acid form, and the monocarboxylic acid form are shown from the left.
The compound was eluted with a linear gradient of A/B=100/0 at 0.5 minutes and 100/0 to 0/100 at 3 minutes detected at 500 nm (eluent A: H2O containing 10 mM ammonium formate; eluent B: acetonitrile 80%, H2O 20% containing 10 mM ammonium formate).

cholinesterase (ChE) = conditions: blood diluted to 1/10,000; corresponding to a total enzyme concentration of 1 pM
Procedure: as §1, §2
FIG. 5(c) illustrates a schematic diagram of a coupled assay of an acetylthiocholine system for detection of cholinesterase (ChE) activity.
as §3
The upper view is a fluorescence image of a microdevice equipped with a probe (30 μM), acetylthiocholine (1 mM), and a 1/10,000-fold diluted plasma sample of a healthy human subject. […]

acetylcholinesterase = experiment: Acetylthiocholine coupled assay in a microdevice with the nitrophenol-type probe; assay type: biochemical; conditions: probe 1 μM, acetylthiocholine iodide 1 mM, human plasma 1,000-fold dilution, 90 minutes at 37° C.
Procedure: The images were acquired after 90 minutes at 37° C.

Compound	adsorption to the microdevice (inner wall of the reaction vessel / well) [1]	leakage of the probe enclosed in the well of the microdevice to the oil [1]	other results
2,6-diCO2H Nitroolefin BODIPY [compound 9]	the same result as in Example 1	–	distribution to octanol (lipid-soluble solvent) side [2]: partially observed
2,6-diPO3H2 Nitroolefin BODIPY [compound 17]	no adsorption to the microdevice was observed	–	water solubility ([1]; inferred from behaviour in the microdevice): high water solubility; water solubility evaluated by elution time of LC-MS [3]: greatly improved; λ (cholinesterase (ChE)): 0.03
2,6-sulfo-nitroolefin BODIPY [compound 2]	not observed	suppressed	–
2-CO2H Nitroolefin BODIPY [compound 4]	the same result as in Example 1	–	lipid solubility [2]: particularly highly lipid-soluble; distribution to octanol (lipid-soluble solvent) side [2]: a large amount of the monocarboxylic acid form was distributed to octanol
2-sulfo-nitroolefin BODIPY [compound 1]	adsorption of the probe to the inner wall of the reaction vessel	suppressed	–
8-(p-nitroolefin)-BODIPY [2- and 6-position unsubstituted BODIPY, reference compound]	–	dissolved in oil	lipid solubility [2]: high lipid solubility
COc1cc(OC)c(C2=C3C=CC(=O)C=C3[Si](C)(C)c3cc(Oc4ccc(C)cc4[N+](=O)[O-])ccc32)cc1C [2.4-dinitro sTM]	–	–	detection of acetylcholinesterase activity in blood (acetylcholinesterase): detected
